Tests used:
[1] = parameters: method as in Petzinger et al.; settings: after in situ ileal perfusion, rat, within 120 min; ref Petzinger et al.; cited from earlier work
[2] = biological target: T1, human ASBT (Homo sapiens, UniProt Q12908); experiment: cell-based
T1 sequence (Q12908 1-348): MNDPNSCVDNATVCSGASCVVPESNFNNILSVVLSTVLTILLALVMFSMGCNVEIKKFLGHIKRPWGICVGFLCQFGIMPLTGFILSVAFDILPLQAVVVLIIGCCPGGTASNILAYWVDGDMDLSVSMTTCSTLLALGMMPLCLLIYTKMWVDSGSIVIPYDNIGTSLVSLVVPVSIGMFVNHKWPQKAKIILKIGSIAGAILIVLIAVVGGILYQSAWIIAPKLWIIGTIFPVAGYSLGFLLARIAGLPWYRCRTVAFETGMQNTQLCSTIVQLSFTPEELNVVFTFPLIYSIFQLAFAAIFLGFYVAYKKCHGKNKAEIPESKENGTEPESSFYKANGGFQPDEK
Procedure: (§1) HEK293 cells stably expressing human NTCP (A), mouse mNtcp (B), human ASBT (C), or mouse mAsbt (D) were used for transport experiments with 3α-NBD-GCA (16d) as the substrate. Fluorescence data in the absence of inhibitors were set as 100% and the fluorescence levels in sodium-free transport buffer were set to 0%. […] Half-maximal inhibitory concentrations (IC50) were calculated by nonlinear regression analysis.
(§2) For quantitative transport experiments, cells were seeded onto polylysine-coated 96-well plates and grown to confluence over 72 h at 37 °C. Then, cells were washed three times with phosphate-buffered saline (PBS), containing 137 mM NaCl, 2.7 mM KCl, 1.5 mM, KH2PO4, and 7.3 mM Na2HPO4 (pH 7.4) followed by preincubation in sodium transport buffer (STB) containing 142.9 mM NaCl, 4.7 mM KCl, 1.2 mM MgSO4, 1.2 mM KH2PO4, 1.8 mM CaCl2, and 20 mM HEPES (pH 7.4). For transport assays under sodium-free conditions (-Na^+), sodium chloride of the STB was substituted with equimolar concentrations of choline chloride. […] Then, transport experiments were started by adding 20 μL STB containing 125 μM of 3α-NBD-GCA (final substrate concentration: 25 μM). All transport experiments were stopped after 10 min, if not otherwise indicated, by aspirating the transport buffer and washing the cells twice with ice-cold PBS. […]

[3] = biological target: T2, mouse mAsbt (Mus musculus, UniProt P70172); experiment: cell-based
T2 sequence (P70172 1-348): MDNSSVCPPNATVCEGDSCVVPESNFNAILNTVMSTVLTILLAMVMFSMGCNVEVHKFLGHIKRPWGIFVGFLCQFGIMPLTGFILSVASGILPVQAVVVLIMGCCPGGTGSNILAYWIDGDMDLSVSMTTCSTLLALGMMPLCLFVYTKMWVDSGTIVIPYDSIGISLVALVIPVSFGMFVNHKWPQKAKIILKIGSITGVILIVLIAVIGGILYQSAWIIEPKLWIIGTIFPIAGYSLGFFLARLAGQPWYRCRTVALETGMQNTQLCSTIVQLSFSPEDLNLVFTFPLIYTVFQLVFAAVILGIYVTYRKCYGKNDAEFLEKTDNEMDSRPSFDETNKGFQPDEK
Procedure: as §1, §2

**Q.** Which “Compound secreted into bile” value [1] does the source give for `C[C@H](CCC(=O)NCCS(=O)(=O)O)[C@H]1CC[C@H]2[C@@H]3[C@H](O)C[C@@H]4CC(Nc5ccc([N+](=O)[O-])c6nonc56)CC[C@]4(C)[C@H]3C[C@H](O)[C@]12C` (stereo partly drawn) [S4148] here?
**A.** 76%

**Q.** For `Cc1c(C)c2c(c(C)c1O)CCC(C)(COc1ccc(CC3SC(=O)NC3=O)cc1)O2` (stereo not drawn) [troglitazone], which IC50 [2] is on record?
**A.** 19.5 µM

**Q.** And the IC50 [3]?
**A.** 18.9 µM

— paper PMC12169615, “Fluorescent 4‑Nitrobenzo-2-oxa-1,3-diazole-Coupled Bile Acids as Probe Substrates of Hepatic and Intestinal Bile Acid Transporters of the Solute Carrier Families SLC10 and SLCO” (Journal of Medicinal Chemistry, 2025)
